Test results published in BindingDB's records for doi:10.1016/j.bmc.2017.03.009 (Wuhan Institute of Technology, 2017).
pEC50: −log10 of the molar value.

Legend:
[1] = Inhibition of HIV1 RES056 reverse transcriptase K103N/Y181C double mutant infected in human MT4 cells assessed as protection against virus-induced cytopathic effect measured at 5 days post infection by MTT assay
[2] = Inhibition of HIV-1 reverse transcriptase E138K mutant infected in human MT4 cells assessed as protection against virus-induced cytopathic effect measured at 5 days post infection by MTT assay

| Structure (SMILES) | pEC50 [1] | pEC50 [2] |
| --- | --- | --- |
| COc1cccc(COc2ccnc(Nc3ccc(C#N)cc3)n2)c1 | < 3.93 | 5.96 |
| N#Cc1ccc(Nc2nccc(OCc3ccc(Cl)cc3)n2)cc1 | < 3.81 | < 3.81 |
| N#Cc1ccc(Nc2nccc(OCc3ccccc3)n2)cc1 | < 4.89 | 5.74 |
| Cc1ccc(COc2ccnc(Nc3ccc(C#N)cc3)n2)cc1 | < 4.09 | 5.14 |
| N#Cc1ccc(Nc2nccc(OCc3ccccc3Br)n2)cc1 | < 3.89 | < 3.89 |
| N#Cc1ccc(Nc2nccc(OCc3cccc(C#N)c3)n2)cc1 | < 5.39 | < 5.39 |
| N#Cc1ccc(Nc2nccc(OCc3cc(F)ccc3Br)n2)cc1 | < 3.72 | < 3.72 |
| Cc1ccccc1COc1ccnc(Nc2ccc(C#N)cc2)n1 | < 4.92 | < 4.92 |
| N#Cc1ccc(Nc2nccc(OCc3cccc(C(F)(F)F)c3)n2)cc1 | < 3.93 | < 3.93 |
| N#Cc1ccc(Nc2nccc(NCc3ccccn3)n2)cc1 | < 5.07 | 6.62 |
| N#Cc1ccc(Nc2nccc(OCc3cccc4ccccc34)n2)cc1 | < 5.11 | 6.52 |
| N#Cc1ccc(Nc2nccc(OCc3cccc(Cl)c3)n2)cc1 | < 3.82 | < 3.82 |
| N#Cc1ccc(Nc2nccc(OCc3ccc4ccccc4c3)n2)cc1 | < 3.67 | 5.00 |
| COc1cc(COc2ccnc(Nc3ccc(C#N)cc3)n2)cc(OC)c1 | < 4.36 | 6.64 |
| N#Cc1ccc(Nc2nccc(OCc3cccc(Br)c3)n2)cc1 | < 3.66 | 5.30 |
| CN(C)c1ccnc(Nc2ccc(C#N)cc2)n1 | < 4.47 | < 4.47 |
| N#Cc1ccc(Nc2nccc(OCc3ccc(Br)cc3)n2)cc1 | < 4.80 | < 4.80 |
| N#Cc1ccc(Nc2nccc(OCc3cccnc3)n2)cc1 | < 5.19 | < 5.19 |
| Cc1cc(C)nc(Sc2ccnc(Nc3ccc(C#N)cc3)n2)n1 | < 3.65 | < 3.65 |
| N#Cc1ccc(Nc2nccc(OCc3ccccc3Cl)n2)cc1 | < 3.84 | < 3.84 |
| N#Cc1ccc(Nc2nccc(OCc3ccccc3C#N)n2)cc1 | < 3.95 | < 3.95 |
| COc1ccccc1COc1ccnc(Nc2ccc(C#N)cc2)n1 | < 5.05 | 5.68 |
| N#Cc1ccc(COc2ccnc(Nc3ccc(C#N)cc3)n2)cc1 | < 3.68 | < 3.68 |
| N#Cc1ccc(Nc2nccc(OCc3cccc(F)c3)n2)cc1 | < 3.98 | 5.73 |
| N#Cc1ccc(Nc2nccc(OCc3ccccc3C(F)(F)F)n2)cc1 | < 3.76 | < 3.76 |
| Cc1cccc(COc2ccnc(Nc3ccc(C#N)cc3)n2)c1 | < 4.52 | 5.93 |
| N#Cc1ccc(Nc2nccc(OCc3ccccc3F)n2)cc1 | < 3.82 | 6.52 |
| N#Cc1ccc(Nc2nccc(OCc3ccc(Br)cc3F)n2)cc1 | < 3.85 | 4.45 |
| COc1ccc(COc2ccnc(Nc3ccc(C#N)cc3)n2)cc1 | < 3.99 | < 3.99 |
| N#Cc1ccc(Nc2nccc(OCc3ccc(F)cc3)n2)cc1 | < 4.09 | < 4.09 |
